In ChEMBL document CHEMBL1201862, “PubChem BioAssay data set” (2004):
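Each compound was tested at five concentrations against cells in 96-well plates for 48 hours. GI50 is the concentration that inhibits growth by half.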 Activity calls are given as the source filed them. No stated cut-off is given here; in the data, active = GI50 up to about 1.1 µM and inactive = higher.

Legend:
Assay in all cases: inhibition of tumour cell growth, NCI panel, 48 h
[1] = system: SK-MEL-2
[2] = system: OVCAR-5
[3] = system: SW-620
[4] = system: HOP-62
[5] = system: SK-MEL-5
[6] = system: MDA-N
[7] = system: HCT-116
[8] = system: HOP-92
[9] = system: ACHN
[10] = system: MCF7
[11] = system: NCI-H460
[12] = system: DU-145
[13] = system: COLO 205
[14] = system: RXF 393
[15] = system: SN12C
[16] = system: NCI-H23
[17] = system: SNB-19
[18] = system: SF-268
[19] = system: U-251
[20] = system: HCT-15
[21] = system: NCI/ADR-RES
[22] = system: SNB-75
[23] = system: LOX IMVI
[24] = system: OVCAR-4
[25] = system: SK-MEL-28
[26] = system: T47D
[27] = system: SK-OV-3
[28] = system: UACC-257
[29] = system: CAKI-1
[30] = system: SR
[31] = system: UACC-62
[32] = system: MDA-MB-231
[33] = system: SF-295
[34] = system: OVCAR-3
[35] = system: MOLT-4
[36] = system: NCI-H226
[37] = system: CCRF-CEM
[38] = system: A498
[39] = system: TK-10
[40] = system: K562
[41] = system: M14
[42] = system: SF-539
[43] = system: MDA-MB-435
[44] = system: RPMI-8226
[45] = system: UO-31
[46] = system: Hs-578T
[47] = system: A549
[48] = system: KM12
[49] = system: 786-0
[50] = system: HT-29
[51] = system: PC-3

Cc1cn(C2OC(CO[Si](C)(C)C(C)(C)C)/C(=C\C#N)C2O[Si](C)(C)C(C)(C)C)c(=O)[nH]c1=O (stereo unspecified)
GI50 [1]: 8.73 µM (inactive)
GI50 [2]: > 100 µM (inactive)
GI50 [3]: > 100 µM (inactive)
GI50 [4]: 63.7 µM (inactive)
GI50 [5]: 6.87 µM (inactive)
GI50 [6]: > 100 µM (inactive)
GI50 [7]: 22.9 µM (inactive)
GI50 [8]: > 100 µM (inactive)
GI50 [9]: 83 µM (inactive)
GI50 [10]: 1.89 µM (inactive)
GI50 [11]: 8.83 µM (inactive)
GI50 [12]: 81.8 µM (inactive)
GI50 [13]: 12.5 µM (inactive)
GI50 [14]: 7.53 µM (inactive)
GI50 [15]: 64.6 µM (inactive)
GI50 [16]: > 100 µM (inactive)
GI50 [17]: > 100 µM (inactive)
GI50 [18]: 92.5 µM (inactive)
GI50 [19]: 38.4 µM (inactive)
GI50 [20]: 14.4 µM
GI50 [21]: > 100 µM (inactive)
GI50 [22]: 56.9 µM (inactive)
GI50 [23]: 19.5 µM (inactive)
GI50 [24]: 58.3 µM (inactive)
GI50 [25]: > 100 µM (inactive)
GI50 [26]: 5.3 µM (inactive)
GI50 [27]: > 100 µM (inactive)
GI50 [28]: 63.5 µM (inactive)
GI50 [29]: > 100 µM (inactive)
GI50 [30]: > 100 µM (inactive)
GI50 [31]: 44.4 µM (inactive)
GI50 [32]: > 100 µM (inactive)
GI50 [33]: 6.67 µM (inactive)
GI50 [34]: 7.73 µM (inactive)
GI50 [35]: > 100 µM (inactive)
GI50 [36]: > 100 µM (inactive)
GI50 [37]: 9.51 µM (inactive)
GI50 [38]: > 100 µM (inactive)
GI50 [39]: > 100 µM (inactive)
GI50 [40]: 1.93 µM (inactive)
GI50 [41]: > 100 µM (inactive)
GI50 [42]: 6.75 µM (inactive)
GI50 [43]: 56.1 µM (inactive)
GI50 [44]: > 100 µM (inactive)
GI50 [45]: > 100 µM (inactive)
GI50 [46]: > 100 µM (inactive)
GI50 [47]: 41.6 µM (inactive)
GI50 [48]: 27.1 µM (inactive)
GI50 [49]: 58.1 µM (inactive)
GI50 [50]: 40.7 µM (inactive)
GI50 [51]: 3.83 µM (inactive)
